Assay results: publication PMC8232895 (Drug Design, Development and Therapy, 2021)
Read-outs that look alike come from different tables or passages of the source.

How the values were obtained:
[1] = ABTS free radical scavenging assay; conditions: for ABTS radical % Inhibition (Mean±SEM): n 3; for IC50: read-out: ABTS scavenging IC50
[2] = target: T1, butyrylcholinesterase (BChE) (Equus caballus, UniProt P81908); conditions: n 3
[3] = DPPH free radical scavenging assay; conditions: for DPPH radical % Inhibition (Mean±SEM): n 3; for IC50: read-out: DPPH scavenging IC50
[4] = target: T1, butyrylcholinesterase (BChE); assay: biochemical; conditions: read-out: BChE % Inhibition (Mean±SEM)

T1 sequence (P81908 whole entry): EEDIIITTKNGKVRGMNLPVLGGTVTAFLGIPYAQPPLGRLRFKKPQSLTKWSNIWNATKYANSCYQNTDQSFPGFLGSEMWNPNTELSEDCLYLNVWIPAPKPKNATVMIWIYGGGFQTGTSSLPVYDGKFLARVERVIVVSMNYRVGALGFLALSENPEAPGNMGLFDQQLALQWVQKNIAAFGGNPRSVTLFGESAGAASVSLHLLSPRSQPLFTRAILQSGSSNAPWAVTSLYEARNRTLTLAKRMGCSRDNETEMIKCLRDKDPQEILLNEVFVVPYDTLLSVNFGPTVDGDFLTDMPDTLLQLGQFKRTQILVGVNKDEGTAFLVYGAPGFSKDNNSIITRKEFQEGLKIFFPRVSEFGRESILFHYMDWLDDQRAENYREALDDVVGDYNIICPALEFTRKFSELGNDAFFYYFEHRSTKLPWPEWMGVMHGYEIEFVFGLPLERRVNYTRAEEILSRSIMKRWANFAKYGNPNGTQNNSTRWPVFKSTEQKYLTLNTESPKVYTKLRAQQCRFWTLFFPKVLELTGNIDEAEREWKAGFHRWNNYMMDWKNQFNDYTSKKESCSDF

Row | Compound | ABTS scavenging IC50 [1] [µg/mL] | ABTS radical % Inhibition (Mean±SEM) ([1]; 15.62 µg/mL) [%] | ABTS radical % Inhibition (Mean±SEM) ([1]; 31.25 µg/mL) [%] | ABTS radical % Inhibition (Mean±SEM) ([1]; 62.5 µg/mL) [%] | ABTS radical % Inhibition (Mean±SEM) ([1]; 125 µg/mL) [%] | ABTS radical % Inhibition (Mean±SEM) ([1]; 250 µg/mL) [%] | ABTS radical % Inhibition (Mean±SEM) ([1]; 500 µg/mL) [%] | ABTS radical % Inhibition (Mean±SEM) ([1]; 1,000 µg/mL) [%] | IC50 [1] [µM] | DPPH radical % Inhibition (Mean±SEM) ([3]; 15.62 µg/mL) [%] | DPPH radical % Inhibition (Mean±SEM) ([3]; 31.25 µg/mL) [%] | DPPH radical % Inhibition (Mean±SEM) ([3]; 62.5 µg/mL) [%] | DPPH radical % Inhibition (Mean±SEM) ([3]; 125 µg/mL) [%] | DPPH radical % Inhibition (Mean±SEM) ([3]; 250 µg/mL) [%] | DPPH radical % Inhibition (Mean±SEM) ([3]; 500 µg/mL) [%] | DPPH radical % Inhibition (Mean±SEM) ([3]; 1000 µg/mL) [%] | IC50 [3] [µM] | other results
1 | ({3-[(4-Methoxy-2-Nitrophenyl) Carbamoyl] Propanoyl} Zincio 3-[(2-Methoxy-5-Nitrophenyl) Carbamoyl] Propanoate Pyridine [AAZ8] | 29 | 65.39±0.89 | 70.28±0.36 | 73.62±0.29 | 77.45±0.87 | 78.36±0.58 | 79.27±0.64 | 81.35±0.35 | 41 | 69.87±0.59 | 73.47±0.26 | 75.68±0.97 | 77.85±0.39 | 79.54±0.63 | 81.69±0.45 | 83.97±0.12 | 29 | BChE % Inhibition (Mean±SEM) ([2]; 15.62 µg/mL): 77.93±0.78 %; BChE % Inhibition (Mean±SEM) ([2]; 31.25 µg/mL): 79.31±0.67%; BChE % Inhibition (Mean±SEM) ([2]; 62.5 µg/mL): 80.72±0.58%; BChE % Inhibition (Mean±SEM) ([2]; 125 µg/mL): 81.64±1.04 %; BChE % Inhibition (Mean±SEM) ([2]; 250 µg/mL): 83.54±0.74%; BChE % Inhibition (Mean±SEM) ([2]; 500 µg/mL): 84.13±0.45 %; BChE % Inhibition (Mean±SEM) ([2]; 1,000 µg/mL): 85.17±0.87 %
2 | COc1ccc2c3c1O[C@H]1C[C@@H](O)C=C[C@@]31CCN(C)C2 [Galantamine] | – | – | – | – | – | – | – | – | – | – | – | – | – | – | – | – | – | inhibition at 15.62 µg/mL [4]: 82.76 ± 0.44%
3 | O=C1O[C@H]([C@@H](O)CO)C(O)=C1O [Ascorbic Acid, reference compound] | <0.1 | 77.65±0.32 | 79.29±0.91 | 81.75±0.85 | 84.68±0.56 | 85.34±0.47 | 88.25±0.87 | 92.36±0.65 | 0.129 | 77.28±0.79 | 82.74±0.23 | 84.44±0.15 | 87.25±0.48 | 91.54±0.37 | 93.65±0.54 | 95.63±0.12 | 0.173 | DPPH scavenging IC50 [3]: <0.1 µg/mL
